The experiment deals with High affinity nerve growth factor receptor (Homo sapiens, UniProt P04629). The experiment in a line: Functional Activity Assay: TrkA functional activity was measured using a DiscoverX PathHunter assay. In this assay, U2OS cells express the human TrkA receptor as a fusion with the weakly complementing fragment of B-galactosidase, which DiscoverX calls “Prolink (PK)”; additionally, Shcl is fused with a larger fragment, which is called “Enzyme Acceptor (EA)”. Activation of the TrkA receptor, upon NGF addition, results in the kinase domain being phosphorylated, resulting in subsequent recruitment of Shcl-EA protein. That recruitment results in an active B-galactosidase enzyme that is detected by addition of a chemiluminescent substrate. The human p75NTR protein was also expressed as a co-receptor for NGF.All reagents were purchased from DiscoverX, except for the receptor agonists (NGF, BDNF, NT3) which were purchased from Peprotech. Cells were expanded and frozen into cryovials, and stored in the vapor phase of liquid nitrogen, and thawed immediately before use. Thawed cells were added to a 384-well plate at 7500 cells/well, and allowed to incubate overnight. Compound at various concentrations was added the following morning and allowed to incubate on cells for 1 h. Then, NGF was added at a concentration sufficient to elicit ˜80% of a maximal response and allowed to incubate for 3 h at ambient temperature.
Chain of High affinity nerve growth factor receptor (P04629 whole entry, the tested form may be a part): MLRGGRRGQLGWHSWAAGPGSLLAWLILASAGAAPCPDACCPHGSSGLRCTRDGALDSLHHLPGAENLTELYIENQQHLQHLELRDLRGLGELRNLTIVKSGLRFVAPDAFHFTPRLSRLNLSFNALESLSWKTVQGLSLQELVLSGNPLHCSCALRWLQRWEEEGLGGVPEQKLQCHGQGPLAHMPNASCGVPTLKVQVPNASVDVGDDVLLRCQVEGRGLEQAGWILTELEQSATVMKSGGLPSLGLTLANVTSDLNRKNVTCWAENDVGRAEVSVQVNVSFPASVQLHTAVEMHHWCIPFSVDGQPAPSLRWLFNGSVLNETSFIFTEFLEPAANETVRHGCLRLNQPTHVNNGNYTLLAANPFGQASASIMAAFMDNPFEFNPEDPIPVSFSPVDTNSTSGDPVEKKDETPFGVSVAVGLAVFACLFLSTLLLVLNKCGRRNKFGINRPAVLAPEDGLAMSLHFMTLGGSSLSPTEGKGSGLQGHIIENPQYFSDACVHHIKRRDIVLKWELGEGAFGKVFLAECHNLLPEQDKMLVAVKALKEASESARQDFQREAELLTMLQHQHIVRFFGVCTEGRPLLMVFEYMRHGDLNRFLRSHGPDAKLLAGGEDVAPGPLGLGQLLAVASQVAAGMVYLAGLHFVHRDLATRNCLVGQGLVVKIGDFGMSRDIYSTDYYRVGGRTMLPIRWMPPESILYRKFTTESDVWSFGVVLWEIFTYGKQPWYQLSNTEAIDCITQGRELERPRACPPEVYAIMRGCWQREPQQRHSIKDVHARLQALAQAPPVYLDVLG

Here are results for one molecule from ChEMBL document CHEMBL5726597, “TrkA kinase inhibitors, compositions and methods thereof” (2017).

Each structure is given as a SMILES string.

Usually IC50 stands for the concentration needed to halve the response being measured. `Cc1ncc(NC(=O)c2cc(-c3ccn(C)n3)c(C(F)(F)F)cc2F)c(-c2ccccc2)n1` had an IC50 of 1 nM.
